Earlier results as cited in patent publication US20140271772A1, “BIODEGRADABLE SUBCUTANEOUS IMPLANTS AND METHODS OF MAKING” (priority 2013, published 2014).

oral bioavailability: 10-30%
Compound: Nc1nc2c(ncn2COCCO)c(=O)[nH]1 [acyclovir]
toxicity to cats (cats): toxic to cats
